One assay relates to HCV GT1a(H77) replicon. Nature of the assay: HCV replicon luciferase reporter assay, genotype 1a. It counts as cell-based, HCV genotype 1a. The note with it: Hepatitis C virus, 72 h, HUH-7 cells, 3 days incubation. The text has this: A stable HCV GT1a(H77) replicon luciferase reporter cell line (Yanagi M, Purcell R H, Emerson S U, et al. Transcripts from a single full-length cDNA clone of hepatitis C virus are infectious when directly transfected into the liver of a chimpanzee. Proc Natl Acad Sci USA 1997; 94(16):8738-8743) was generated as described previously for the genotype 1b(Con1) replicon luciferase cell line. The replicon construct was modified by introducing mutations into the genes encoding the NS3 helicase domain (proline replaced by leucine at position 1496) and NS5A (serine to isoleucine at position 2204) to improve replication in cell culture.
(§1) HCV replicon luciferase assays were developed to monitor the inhibitory effects of compounds described in the disclosure on HCV genotypes 1a and 1b viral replication. HUH-7 cells, constitutively expressing the HCV replicon, were grown in Dulbecco's Modified Eagle Media (DMEM) (Gibco-BRL) containing 10% Fetal calf serum (FCS) (Sigma) and 1 mg/mL G418 (Gibco-BRL). Compounds were serially diluted 3 folds in DMSO for a twenty-point titration and subsequently transferred to sterile 384-well tissue-culture treated plates (Corning cat #3571). The plates were then seeded with 50 μL of cells at a density of 3.0×10^3 cells/well in DMEM containing 4% FCS (final DMSO concentration at 0.5%). After 3 days incubation at 37° C., cells were analyzed for Renilla Luciferase activity using the EnduRen as substrate (Promega cat #E6485). The EnduRen substrate was diluted in DMEM and then added to the plates to a final concentration of 7.5 μM. The plates were incubated for 2 hrs at 37° C. and then read immediately for 30 seconds with Viewlux Imager (PerkinElmer) using a luminescence program. To assess cytotoxicity of compounds, CC50 values were generated by multiplexing the EnduRen-containing plates with Cell Titer-Blue (Promega, cat # G8082). Cell-Titer Blue (3 μL) was added to each well and incubated for 8 hrs at 37° C. The fluorescence signal from each well was read, with an excitation wavelength at 525/10 nm and an emission wavelength of 598/10 nm, using the Viewlux Imager.
(§2) The EC50 values for compounds were calculated by using a four-parameter logistic equation: y=A+((B−A)/(1+((C/x)^D))), where A and B denotes minimal and maximal % inhibition, respectively, C is the EC50, D is the hill slope and x represents compound concentration.

In another assay the test system is HCV GT1b(Con1) replicon. As to the kind of experiment: HCV replicon luciferase reporter assay, genotype 1b. The settings on record: Hepatitis C virus, 72 h, HUH-7 cells, 3 days incubation. It counts as cell-based, HCV genotype 1b.
Source text: An HCV GT1b(Con1) replicon cell system was established as described by Lohmann V, Korner F, Koch J, Herian U, Theilmann L, Bartenschlager R., Science 285(5424):110-3 (1999) and modified to introduce a luciferase reporter (Krieger N, Lohmann V, and Bartenschlager R, J. Virol. 75(10):4614-4624 (2001)). cDNA encoding a humanized form of the Renilla luciferase gene, and a linker sequence fused directly to the 3′-end of the luciferase gene were introduced into the replicon construct using an Asc1 restriction site located in core, directly upstream of the neomycin marker gene. The adaptive mutation at position 1179 (serine to isoleucine) was also introduced (Blight K J, Kolykhalov, A A, Rice, C M, Science 290(5498):1972-1974). A stable cell line constitutively expressing this HCV replicon construct was generated by first linearizing plasmid DNAs with ScaI. RNA transcripts were synthesized in vitro using the T7 MegaScript transcription kit (Ambion, Austin, Tex.) according to manufacturer's directions. In vitro transcripts of the cDNA were transfected into the human hepatoma cell line, HUH-7. […] Resulting cell lines were characterized for positive and negative strand RNA production and protein production over time.
as §1, §2
(Replicon systems follow genome replication, usually without infectious particles.)

pEC50: −log10 of the molar value. Where two headings read alike, the source gives them in different places.

Usually pEC50 stands for the negative decadic logarithm of the EC50, by convention in mol/L.

Take `C[C@@H]1CC/C=C\[C@@H]2C[C@@]2(C(=O)NS(=O)(=O)C2(C)CC2)NC(=O)[C@@H]2C[C@@H](OC(=O)Nc3ccccc3C(F)(F)F)CN2C(=O)[C@@H](NC(=O)OC(C)(C)C)[C@H](C)C1` [Compound 1302]: the pEC50 is 7.46 to 8.30 with HCV GT1a(H77) replicon (read-out: LE_1a (EC50, range)) and 8.30 to 9.00 with HCV GT1b(Con1) replicon (read-out: LE_1b (EC50, range)).

In the case of `C[C@@H]1CC/C=C\[C@@H]2C[C@@]2(C(=O)NS(=O)(=O)C2(C)CC2)NC(=O)[C@@H]2C[C@@H](OC(=O)Nc3ccc(F)cc3)CN2C(=O)[C@@H](NC(=O)OC(C)(C)C)[C@H](C)C1` [Compound 1304], the negative-log EC50 (pEC50) was 7.20 with HCV GT1a(H77) replicon (read-out: LE_1a (EC50)); 7.20 to 7.46 in the assay on HCV GT1a(H77) replicon (read-out: LE_1a (EC50, range)); 7.69 in the assay on HCV GT1b(Con1) replicon (read-out: LE_1b (EC50)); 7.46 to 8.30 in the assay on HCV GT1b(Con1) replicon (read-out: LE_1b (EC50, range)).

Consider `Cc1cc(C)c(NC(=O)O[C@@H]2C[C@H]3C(=O)N[C@]4(C(=O)NS(=O)(=O)C5(C)CC5)C[C@H]4/C=C\CC[C@@H](C)C[C@@H](C)[C@H](NC(=O)OC(C)(C)C)C(=O)N3C2)c(Cl)c1` [Compound 1306], for which the negative-log EC50 (pEC50) was 7.46 to 8.30 in the assay on HCV GT1a(H77) replicon (read-out: LE_1a (EC50, range)) and 7.46 to 8.30 in the assay on HCV GT1b(Con1) replicon (read-out: LE_1b (EC50, range)).

As for `C[C@@H]1CC/C=C\[C@@H]2C[C@@]2(C(=O)NS(=O)(=O)C2(C)CC2)NC(=O)[C@@H]2C[C@@H](OC(=O)Nc3ccccc3C(F)(F)F)CN2C(=O)[C@@H](NC(=O)OC(C)(C)C(F)(F)F)[C@H](C)C1` [Compound 1307], the negative logarithm of the EC50 (pEC50) was 8.30 to 9.00 in the assay with HCV GT1a(H77) replicon (read-out: LE_1a (EC50, range)) and 8.30 to 9.00 in the assay with HCV GT1b(Con1) replicon (read-out: LE_1b (EC50, range)).

In the case of `C[C@@H]1CC/C=C\[C@@H]2C[C@@]2(C(=O)NS(=O)(=O)C2(C)CC2)NC(=O)[C@@H]2C[C@@H](OC(=O)Nc3ccc(F)cc3)CN2C(=O)[C@@H](NC(=O)OC(C)(C)C(F)(F)F)[C@H](C)C1` [Compound 1309], the pEC50 with HCV GT1a(H77) replicon (read-out: LE_1a (EC50, range)) was 7.20 to 7.46; with HCV GT1b(Con1) replicon (read-out: LE_1b (EC50, range)), 7.46 to 8.30.

For the compound `Cc1cc(C)c(NC(=O)O[C@@H]2C[C@H]3C(=O)N[C@]4(C(=O)NS(=O)(=O)C5(C)CC5)C[C@H]4/C=C\CC[C@@H](C)C[C@@H](C)[C@H](NC(=O)OC(C)(C)C(F)(F)F)C(=O)N3C2)c(Cl)c1` [Compound 1311], the negative logarithm of the EC50 (pEC50) is 7.20 to 7.46 with HCV GT1a(H77) replicon (read-out: LE_1a (EC50, range)) and 7.46 to 8.30 in the assay with HCV GT1b(Con1) replicon (read-out: LE_1b (EC50, range)).

Regarding `CC[C@@H]1C[C@@H](C)CC/C=C\[C@@H]2C[C@@]2(C(=O)NS(=O)(=O)C2(C)CC2)NC(=O)[C@@H]2C[C@@H](OC(=O)N3Cc4cccc(F)c4C3)CN2C(=O)[C@H]1NC(=O)OC(C)(C)C` [Compound 1312, (2R,6S,7R,9S,13aS,14aR,16aS,Z)-6-((tert-butoxycarbonyl)amino)-7-ethyl-9-methyl-14a-(((1-methylcyclopropyl)sulfonyl)carbamoyl)-5,16-dioxo-1,2,3,5,6,7,8,9,10,11,13a,14,14a,15,16,16a-hexadecahydrocyclopropa[e]pyrrolo[1,2-a][1,4]diazacyclopentadecin-2-yl 4-fluoroisoindoline-2-carboxylate], the negative logarithm of the EC50 (pEC50) is 7.46 to 8.30 in the assay with HCV GT1a(H77) replicon (read-out: LE_1a (EC50, range)) and 8.30 to 9.00 in the assay with HCV GT1b(Con1) replicon (read-out: LE_1b (EC50, range)).

Regarding `CC[C@@H]1C[C@H](C)CC/C=C\[C@@H]2C[C@@]2(C(=O)NS(=O)(=O)C2(C)CC2)NC(=O)[C@@H]2C[C@@H](OC(=O)N3Cc4cccc(F)c4C3)CN2C(=O)[C@H]1NC(=O)OC(C)(C)C` [Compound 1313, (2R,6S,7R,9R,13aS,14aR,16aS,Z)-6-((tert-butoxycarbonyl)amino)-7-ethyl-9-methyl-14a-(((1-methylcyclopropyl)sulfonyl)carbamoyl)-5,16-dioxo-1,2,3,5,6,7,8,9,10,11,13a,14,14a,15,16,16a-hexadecahydrocyclopropa[e]pyrrolo[1,2-a][1,4]diazacyclopentadecin-2-yl 4-fluoroisoindoline-2-carboxylate], the pEC50 is 8.30 to 9.00 with HCV GT1a(H77) replicon (read-out: LE_1a (EC50, range)) and 8.30 to 9.00 in the assay with HCV GT1b(Con1) replicon (read-out: LE_1b (EC50, range)).

With `C[C@H]1CC/C=C\[C@@H]2C[C@@]2(C(=O)NS(=O)(=O)C2(C)CC2)NC(=O)[C@@H]2C[C@@H](OC(=O)N3Cc4cccc(F)c4C3)CN2C(=O)[C@@H](NC(=O)OC(C)(C)C)[C@H](C)C1` [Compound 1314, (2R,6S,7R,9S,13aS,14aR,16aS,Z)-6-((tert-butoxycarbonyl)amino)-7,9-dimethyl-14a-(((1-methylcyclopropyl)sulfonyl)carbamoyl)-5,16-dioxo-1,2,3,5,6,7,8,9,10,11,13a,14,14a,15,16,16a-hexadecahydrocyclopropa[e]pyrrolo[1,2-a][1,4]diazacyclopentadecin-2-yl 4-fluoroisoindoline-2-carboxylate], the pEC50 in the assay with HCV GT1a(H77) replicon (read-out: LE_1a (EC50, range)) is 7.46 to 8.30; with HCV GT1b(Con1) replicon (read-out: LE_1b (EC50, range)), 8.30 to 9.00.

Take `C[C@@H]1CC/C=C\[C@@H]2C[C@@]2(C(=O)NS(=O)(=O)C2(C)CC2)NC(=O)[C@@H]2C[C@@H](OC(=O)N3Cc4cccc(F)c4C3)CN2C(=O)[C@@H](NC(=O)OC(C)(C)C)[C@H](C)C1` [Compound 1315, (2R,6S,7R,9R,13aS,14aR,16aS,Z)-6-((tert-butoxycarbonyl)amino)-7,9-dimethyl-14a-(((1-methylcyclopropyl)sulfonyl)carbamoyl)-5,16-dioxo-1,2,3,5,6,7,8,9,10,11,13a,14,14a,15,16,16a-hexadecahydrocyclopropa[e]pyrrolo[1,2-a][1,4]diazacyclopentadecin-2-yl 4-fluoroisoindoline-2-carboxylate]: the negative-log EC50 (pEC50) in the assay on HCV GT1a(H77) replicon (read-out: LE_1a (EC50)) was 9.02; in the assay on HCV GT1a(H77) replicon (read-out: LE_1a (EC50, range)), 9.00 to 9.29; with HCV GT1b(Con1) replicon (read-out: LE_1b (EC50)) it was 9.48; in the assay with HCV GT1b(Con1) replicon (read-out: LE_1b (EC50, range)) it was 9.30 to 10.00.

Source of the values: US9409943B2 (Bristol-Myers Squibb Company, priority 2012, dated 2016).
